Where “and” joins values, the source holds several entries; their conditions need not be identical. Equal values may be shown once.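 The compound was tested at five concentrations on cells cultured in 96-well plates, with a 48-hour exposure period. Abbreviation: GI50, concentration required for 50% inhibition of growth. TGI denotes the concentration required for complete inhibition of growth.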
Tests used:
Test in all cases: NCI anticancer screen, dose series, 48 h
PC-3 prostate = tested on: PC-3 prostate
DMS 273 small cell lung = tested on: DMS 273 small cell lung
HCT-15 colon = tested on: HCT-15 colon
M19-MEL melanoma = tested on: M19-MEL melanoma
HL-60(TB) leukemia = tested on: HL-60(TB) leukemia
SF-295 CNS = tested on: SF-295 CNS
NCI/ADR-RES ovarian = tested on: NCI/ADR-RES ovarian
A549 NSCLC = tested on: A549 NSCLC
MDA-MB-231 breast = tested on: MDA-MB-231 breast
SF-268 CNS = tested on: SF-268 CNS

SMILES | GI50 (PC-3 prostate) [µM] | TGI (PC-3 prostate) [µM] | GI50 (DMS 273 small cell lung) [µM] | TGI (DMS 273 small cell lung) [µM] | GI50 (HCT-15 colon) [µM] | TGI (HCT-15 colon) | GI50 (M19-MEL melanoma) [µM] | TGI (M19-MEL melanoma) | GI50 (HL-60(TB) leukemia) [µM] | TGI (HL-60(TB) leukemia) | GI50 (SF-295 CNS) [µM] | TGI (SF-295 CNS) [µM] | GI50 (NCI/ADR-RES ovarian) | TGI (NCI/ADR-RES ovarian) [µM] | GI50 (A549 NSCLC) [µM] | TGI (A549 NSCLC) | GI50 (MDA-MB-231 breast) [µM] | TGI (MDA-MB-231 breast) [µM] | GI50 (SF-268 CNS) [µM] | TGI (SF-268 CNS) [µM]
CC(C)(CO)N=Cc1ccccc1[O-].CC(C)(CO)N=Cc1ccccc1[O-].[Co+2] | 49.3 | > 100 | > 85.9 | > 100 | 69.7 | > 100 µM | > 73.8 | > 100 µM | 11.8 | 79.4 µM | > 100 | > 100 | > 100 µM | > 100 | > 100 | > 100 µM | > 74.9 | > 100 | 46.3 | > 100
Cc1cc([N+](=O)[O-])c(S(=O)(=O)c2ccccc2)c([N+](=O)[O-])c1 |  |  |  | 32.1 |  | 35.3 µM |  | 26.3 µM |  | 10.7 µM |  | 36.9 |  |  |  | 41.3 µM |  |  |  | 50.4
C=CC1=CC(C)C[C@]1(O)C(=O)OC (some centres not stated) |  |  | > 100 |  |  | > 100 µM | > 100 |  | > 100 |  | > 100 |  |  |  | > 100 |  |  |  | > 100 | 
CCCCCCCCCC(=O)Oc1cccc2onc(C)c12 |  |  |  | > 100 |  | > 100 µM |  | > 100 µM |  | 56.4 µM |  | > 100 |  |  |  | > 100 µM |  |  |  | > 100
Cc1ccc(/C=C2\CNC/C(=C\c3ccc(C)cc3)C2=O)cc1 |  | 13.2 |  | 2.49 | 0.407 | 1.45 µM and 3.62 µM | 2.1 | 2.98 µM and 5 µM | 1.41 | 6.46 µM and 2.53 µM |  | > 49.2 |  |  | 0.861 | 2.9 µM and > 27.1 µM |  | > 24.6 |  | 10.3
CC1=C(C(=O)CC(=O)C(=O)NC2C3CC4CC(C3)CC2C4)Sc2ccccc2N1 (configuration not stated) |  |  |  | > 100 |  | > 100 µM |  | > 100 µM |  | > 100 µM |  | > 100 |  |  |  | > 100 µM |  |  |  | > 100
COc1cc([C@H]2c3[nH]c4ccccc4c3C[C@H]3COC(=O)N32)cc(OC)c1O |  | > 100 |  | 44.2 |  | 38.5 µM |  | > 100 µM |  | 14.5 µM |  | 81.8 |  | > 100 |  | 29.5 µM |  | 49.8 |  | > 72.1
COC(=O)C1(F)C(=O)NC(=O)NC1OC (configuration not stated) |  |  |  | > 100 |  | > 100 µM |  | > 100 µM |  | > 100 µM |  | > 100 |  |  |  | > 100 µM |  |  |  | > 100
O=C(O)[C@@H]1CCCC[C@@H]1C(=O)N(C1CCCCC1)C1CCCCC1 |  |  |  | > 100 |  | > 100 µM |  | > 100 µM |  | > 100 µM |  | > 100 |  |  |  | > 100 µM |  |  |  | > 100
CCOC1=C2NC(Cc3ccc(F)cc3)=NC2C(=O)c2ccccc21 (configuration not stated) |  |  |  | 81.3 |  |  |  | 39.5 µM |  | 22.2 µM |  |  |  |  |  |  |  |  |  | 
C/C(=N/O)c1ccc2c(c1)C(=NO)c1cc(/C(C)=N/O)ccc1-2 |  |  |  | > 100 |  | 36.3 µM |  | 64.8 µM |  | 91.4 µM |  | 29.1 |  |  |  | 68.6 µM |  |  |  | 28.3
NC(=O)C(=O)n1ncc(Cl)c(Cl)c1=O |  |  |  | > 100 |  | > 76.4 µM |  | > 65.3 µM |  | 17.7 µM |  | 20.3 |  | > 100 |  | > 100 µM |  |  |  | > 92.9
CC(=O)OCCC(O[Si](c1ccccc1)(c1ccccc1)C(C)(C)C)C(C)(C)O (configuration not stated) |  |  |  | > 100 |  | > 100 µM |  | 57.2 µM |  |  |  | 45.6 |  |  |  | > 100 µM |  |  |  | > 100
O=[N+]([O-])C1C2C=CC(C2)[C@H]1c1ccc(Cl)cc1Cl (some centres not stated) |  |  |  | > 100 |  | > 100 µM |  | > 100 µM |  | 53.2 µM |  | > 100 |  |  |  | > 100 µM |  |  |  | > 100
NC(=O)c1c[se]c(C2OC(COP(=O)(O)CP(=O)(O)OCC3OC(n4cnc5c(N)ncnc54)C(O)C3O)C(O)C2O)n1 (configuration not stated) |  |  |  | > 100 |  |  |  | > 100 µM |  | > 100 µM |  | > 100 |  |  |  | > 100 µM |  |  |  | > 100
O=C1C(c2ccccc2)=C(c2ccccc2)[C@H](c2ccccc2)[C@]1(Cc1nnn(-c2ccc([N+](=O)[O-])cc2)c1N1CCOCC1)c1ccccc1 |  |  |  | > 37.5 |  | > 37.5 µM |  | > 37.5 µM |  | > 37.5 µM |  | > 37.5 |  |  |  | > 37.5 µM |  |  |  | 
COc1nc2c(c(O)c(C)c(=O)n2OC2OC(COC(C)=O)C(OC(C)=O)C(OC(C)=O)C2OC(C)=O)c(=O)n1C (configuration not stated) |  |  |  | > 100 |  | > 100 µM |  | > 100 µM |  |  |  | > 100 |  |  |  | > 100 µM |  |  |  | > 100
COc1ccc2[nH]c3c(=O)[nH]ncc3c2c1 |  |  |  | > 100 |  | > 100 µM |  | > 100 µM |  | > 100 µM |  | > 100 |  |  |  | > 100 µM |  |  |  | > 100
COc1ccc(CC2=NCCc3cc(OC)c(OC)cc32)cc1Br |  |  |  | 33.7 |  |  |  | > 100 µM |  | 21.7 µM |  | 30.4 |  |  |  | > 100 µM |  |  |  | > 100
CC[C@@]1(O)C(=O)OCc2c1cc1n(c2=O)Cc2cc3c(N)cccc3nc2-1 |  | > 100 |  | 0.111 |  | 33.7 µM |  | 0.654 µM |  | 0.51 µM | 0.00874 | 2.37 | 0.0158 µM and < 0.0151 µM | 2.08 | 0.0701 | 2.31 µM |  | > 19.9 | 0.00728 | 3.06
Cc1ccccc1NC(=O)C(=O)CC(=O)c1ccc([N+](=O)[O-])cc1 |  |  |  | > 100 |  | > 100 µM |  | > 100 µM |  |  |  | > 100 |  |  |  | > 100 µM |  |  |  | > 100

From PubChem BioAssay (NCI)
